Data reported in publication PMC10873978, “Novel tetrahydroisoquinolines as DHFR and CDK2 inhibitors: synthesis, characterization, anticancer activity and antioxidant properties” (BMC Chemistry, 2024).
Where “and” joins values, the source holds several entries; their conditions need not be identical. Identical values can stand only once. Like-named read-outs stand apart in the source and are kept apart here.

Key:
MCF7 cell line [1] = assay: In vitro cytotoxic activity, MTT method, MCF7; type: cell-based, human; settings: for IC50: MTT
Outline: (§1)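 Monolayers formed over 24 h at 37 °C from 10^5 cells/mL were treated with graded compound concentrations, doxorubicin serving as reference. Viability came from MTT reduction over 1–5 h (5% CO2), absorbance at 560 nm with 620 nm background subtraction.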

A549 cell line = assay: In vitro cytotoxic activity, MTT method, A549
Outline: as §1

[2] = Cytotoxicity on normal cell line WI-38; type: cell-based, human; settings: human, WI-38 cells (normal fetal lung fibroblasts)
WI-38 cell line = assay: Cytotoxicity on normal cell line WI-38; type: cell-based, human; settings: for IC50: read-out: Toxicity on WI38 IC50 ± SD
MCF7 cell line [3] = assay: Annexin-V FITC/PI apoptosis assay, MCF7; type: cell-based, human; settings: MCF7, compound at IC50, 24 h
Procedure: (www.biovision.com). […] These stained cells were measured using flow cytometry with an excitation wavelength of 488 nm and an emission wavelength of 530 nm. The results were then analyzed with the Cell quest software.
To further investigate whether the anti-proliferative activity for compound 7e or 8d is harmonious with the apoptosis induction within A549 or MCF7 cells pointed out by the increased cell population in G2/M phase in 7e-treated A549 cells and S phase in 8d-treated MCF7 cells, respectively, and AnnexinV-FITC/PI dual staining analysis was used for the apoptosis assay (Fig. 3).

[4] = molecular target: T1, Dihydrofolate Reductase (DHFR) (Homo sapiens, UniProt P00374); assay: DHFR inhibitors assay kit (absorbance 340 nm); type: biochemical; settings: for %inh: DHFR
T1 construct: purchased abcam ab283374
T1 sequence (P00374 1-187): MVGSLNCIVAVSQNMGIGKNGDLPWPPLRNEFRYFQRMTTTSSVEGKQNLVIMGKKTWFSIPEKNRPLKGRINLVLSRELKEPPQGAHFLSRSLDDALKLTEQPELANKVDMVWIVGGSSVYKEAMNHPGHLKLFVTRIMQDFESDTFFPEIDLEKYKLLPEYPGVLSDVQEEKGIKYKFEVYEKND
Procedure: The DHFR inhibitors assay kit was performed according to abcam (code ab283374); (www.abcam.co.jp).
Firstly, Dilute 2 μL Dihydrofolate Reductase with798 μL DHFR Assay Buffer. Then add 98 μL of diluted Dihydrofolate Reductase into desired well(s) containing the out synthesized 8d compound. Add 40 μL of diluted NADPH to each well containing the test samples. Incubate at room temperature for 10–15 min. Add 60 μL of diluted DHFR substrate to each well containing the test samples vortex briefly and keep on ice. Measure the absorbance immediately at 340 nm. Then calculate the inhibition concentration of 8d compound. The data was analyzed and plot by Graphpad prism software.

Eef2 kinase = Eef2 kinase (Homo sapiens, UniProt O00418); assay: Eef2 kinase inhibition; type: biochemical

With `CC(=O)c1ccc(NC(=O)c2sc3nc(C)c4c(c3c2N)CC(C)(O)C(C(C)=O)C4c2ccc(N(C)C)cc2)cc1` (centres unmarked) [Compound 8d, 7-Acetyl-N-(4-acetylphenyl)-1-amino-5,8-dimethyl-8-hydroxy-6-(4-N,N-dimethylaminophenyl)-6,7,8,9-tetrahydrothieno[2,3-c]isoquinoline-2-carboxamide] the IC50 (MCF7 cell line [1]; Homo sapiens, MCF7, MCF7 cell line) was 170 nM, the Toxicity % (MCF7 cell line [1]; MCF7, Conc. 0.0487 µMol) was 21.79% and the Viability % (MCF7 cell line [1]; MCF7, Conc. 0.0487 µMol) was 78.2125%. It also gave a Viability % (MCF7 cell line [1]; MCF7, Conc. 0.0975 µMol) of 54.4424%, a Toxicity % (MCF7 cell line [1]; MCF7, Conc. 0.195 µMol) of 54.13% and a Viability % (MCF7 cell line [1]; MCF7, Conc. 0.195 µMol) of 45.87%. The Toxicity % (MCF7 cell line [1]; MCF7, Conc. 0.391 µMol) was 65.48%, the Viability % (MCF7 cell line [1]; MCF7, Conc. 0.391 µMol) was 34.52% and the Toxicity % (MCF7 cell line [1]; MCF7, Conc. 0.781 µMol) was 88.6%. The Viability % (MCF7 cell line [1]; MCF7, Conc. 0.781 µMol) was 11.4%, the Toxicity % (MCF7 cell line [1]; MCF7, Conc. 1.562 µMol) was 93.83% and the Viability % (MCF7 cell line [1]; MCF7, Conc. 1.562 µMol) was 6.168%. The Toxicity % (MCF7 cell line [1]; MCF7, Conc. 3.125 µMol) was 94.61%, the Viability % (MCF7 cell line [1]; MCF7, Conc. 3.125 µMol) was 5.392% and the Toxicity % (MCF7 cell line [1]; MCF7, Conc. 6.25 µMol) was 96.41%. For the same molecule, the Viability % (MCF7 cell line [1]; MCF7, Conc. 6.25 µMol) was 3.595%, the Toxicity % (MCF7 cell line [1]; MCF7, Conc. 12.5 µMol) was 97.06% and the Viability % (MCF7 cell line [1]; MCF7, Conc. 12.5 µMol) was 2.941%. For the same molecule, the Toxicity % (MCF7 cell line [1]; MCF7, Conc. 25 µMol) was 97.55%, the Viability % (MCF7 cell line [1]; MCF7, Conc. 25 µMol) was 2.451% and the IC50 (MCF7 cell line [1]; MCF7 cell line) was 117 ± 4 nM. For the same molecule, the Toxicity % (A549 cell line; A549, Conc. 0.04875 µMol) was 13.49%, the Toxicity % (A549 cell line; A549, Conc. 0.0975 µMol) was 15.39% and the Toxicity % (A549 cell line; A549, Conc. 0.195 µMol) was 19.17%. The Viability % (A549 cell line; A549, Conc. 0.195 µMol) was 80.83%, the Toxicity % (A549 cell line; A549, Conc. 0.391 µMol) was 43.87% and the Viability % (A549 cell line; A549, Conc. 0.391 µMol) was 56.13%. For the same molecule, the Toxicity % (A549 cell line; A549, Conc. 0.781 µMol) was 53.45%, the Viability % (A549 cell line; A549, Conc. 0.781 µMol) was 46.55% and the Toxicity % (A549 cell line; A549, Conc. 1.562 µMol) was 68.4%. It also gave a Viability % (A549 cell line; A549, Conc. 1.562 µMol) of 31.6%, a Toxicity % (A549 cell line; A549, Conc. 3.125 µMol) of 82.68% and a Viability % (A549 cell line; A549, Conc. 3.125 µMol) of 17.32%. For the same molecule, the Toxicity % (A549 cell line; A549, Conc. 6.25 µMol) was 88.4%, the Viability % (A549 cell line; A549, Conc. 6.25 µMol) was 11.6% and the Toxicity % (A549 cell line; A549, Conc. 12.5 µMol) was 96.41%. For the same molecule, the Viability % (A549 cell line; A549, Conc. 12.5 µMol) was 3.59%, the Toxicity % (A549 cell line; A549, Conc. 25 µMol) was 96.65% and the Viability % (A549 cell line; A549, Conc. 25 µMol) was 3.353%. The IC50 (A549 cell line; Homo sapiens, read-out: IC50 ± SD) was 515 ± 2 nM, the viability at 3.125 µM ([2]; WI38) was 86.3% and the viability at 1.55 µM ([2]; WI38, 1.55uM (log conc. 0.19), read-out: % viability) was 96.7%. It also gave a viability at 6.25 µM ([2]; WI38, 6.25uM (log conc. 0.8), read-out: % viability) of 74%, a viability at 12.5 µM ([2]; WI38, 12.5uM (log conc. 1.1), read-out: % viability) of 62.8% and a viability at 25 µM ([2]; WI38, 25uM (log conc. 1.4), read-out: % viability) of 46.9%. For the same molecule, the IC50 (WI-38 cell line; Homo sapiens, WI-38, normal human fetal lung fibroblast WI-38) was 23300 nM, the “Selectivity index (SI)” value (WI-38 cell line; IC50 in WI-38 / IC50 in A549) was 45 and 45.24 and the “% viability” value (WI-38 cell line; WI38, 6.25uM (log conc. 0.8), 6.25 µM) was 73.9744%. For the same molecule, the “% viability” value (WI-38 cell line; WI38, 25uM (log conc. 1.4), 25 µM) was 46.8729%, the IC50 (WI-38 cell line; normal human fetal lung fibroblast WI-38) was 23300 ± 930 nM and the early apoptotic population (MCF7 cell line [3]) was 22.38%. For the same molecule, the late apoptotic population (MCF7 cell line [3]) was 26.96%, the “population of necrotic cells” value (MCF7 cell line [3]) was 5.04% and the “%inh” value ([4]; conc 0.01 (log -2)) was 27.5%. For the same molecule, the “%inh” value ([4]; conc 0.1 (log -1)) was 38.9%, the “%inh” value ([4]; conc 1 (log 0)) was 67.1% and the “%inh” value ([4]; conc 10 (log 1)) was 85.7%. For the same molecule, the “%inh” value ([4]; conc 100 (log 2)) was 93%, the IC50 ([4]; read-out: DHFR inhibition (IC50 ± SD)) was 199 ± 16 nM and the “%inh” value (Eef2 kinase; Eef2, conc 0.01 (log -2)) was 16.5%. For the same molecule, the “%inh” value (Eef2 kinase; Eef2, conc 0.1 (log -1)) was 32.8%, the “%inh” value (Eef2 kinase; Eef2, conc 1 (log 0)) was 48.2% and the “%inh” value (Eef2 kinase; Eef2, conc 10 (log 1)) was 76.5%. The “%inh” value (Eef2 kinase; Eef2, conc 100 (log 2)) was 91.7% and the IC50 (Eef2 kinase; read-out: Eef2 kinase (IC50 ± SD)) was 689 ± 36 nM.
